Data reported in PMC5688144, “Assay interference and off-target liabilities of reported histone acetyltransferase inhibitors” (Nature Communications, 2017).

Assays:
Absorbance spectra = type: physicochemical; conditions: for Absorption max (nm) / Absorbance counter-screen: 25 mM sodium phosphate, pH 7.0; for Absorbance counter-screen: 300-750 nm; for Molar absorptivity: at absorption max
Summary of the method: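 Spectra from 300 to 750 nm were recorded at 100, 50 and 10 μM final compound in 25 mM sodium phosphate pH 7.0 with 2.0% DMSO, after 10 min at RT, read at 25 °C. Significant absorbance meant molar absorptivity above 2000 M^−1 cm^−1 at wavelengths above 300 nm.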

AmpC β-lactamase = biological target: T1, AmpC β-lactamase (Escherichia coli, UniProt P00811); assay: biochemical; set-up: species or system E. coli; conditions: 10 μM compound; for AmpC aggregation counter-screen: ± 0.01% Triton X-100
T1 construct: Recombinant E. coli AmpC (amino acids 20–377); purchased MyBioSource.com
T1 sequence (P00811 20-377): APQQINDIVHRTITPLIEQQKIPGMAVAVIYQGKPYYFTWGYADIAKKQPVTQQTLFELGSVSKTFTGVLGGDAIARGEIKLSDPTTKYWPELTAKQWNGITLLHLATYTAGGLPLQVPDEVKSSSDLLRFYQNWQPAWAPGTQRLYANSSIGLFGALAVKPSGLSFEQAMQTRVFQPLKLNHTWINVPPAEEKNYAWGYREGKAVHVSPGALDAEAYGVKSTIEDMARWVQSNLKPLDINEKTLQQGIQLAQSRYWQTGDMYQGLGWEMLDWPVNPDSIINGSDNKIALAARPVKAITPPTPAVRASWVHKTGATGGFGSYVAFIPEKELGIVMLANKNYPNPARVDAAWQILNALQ
Summary of the method: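 Compounds at 10 μM (2% DMSO, triplicate) were preincubated 5 min at RT with ~5 nM E. coli AmpC (residues 20–377) in 25 mM sodium phosphate pH 7.0, with or without 0.01% Triton X-100, then given 100 μM nitrocefin. Activity was normalized to DMSO; aggregation was called on a detergent-dependent change >30% (adjusted P <0.05).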

[1] = UPLC-MS gross compound stability in assay buffer; conditions: 25 mM sodium phosphate, pH 7.0, 30 °C, no GSH or CoA
Protocol: Select compounds were incubated up to 24 h for additional stability analyses. Chromatograms and mass spectra were qualitatively analyzed for the formation of new peaks and/or loss of parent peaks.

[2] = Fluorescence quenching counter-screen; type: physicochemical; conditions: 10 μM fluorophore; 32 nM-100 μM compound
Protocol: Selected test compounds were assessed for fluorescence quenching using adaptions of previously published procedures[9],[24]. Briefly, test compounds and individual fluorophore standards were incubated together. The fluorescence intensity of these mixtures was compared to the fluorescence intensity of the same fluorophore standards minus test compounds. Each microplate contained positive control columns (DMSO plus fixed concentration of a single fluorophore), negative control columns (DMSO), and experimental wells (test compounds plus fixed concentration of a single fluorophore). […] Final concentration of DMSO was constant at 2.0% (v/v). […] All measurements were performed in ALARM NMR buffer (25 mM sodium phosphate, pH 7.0) at 25 °C. Aliquots of 20 μL buffer were dispensed into microplate wells via ThermoFisher Multidrop dispenser. Microplates were shaken for 1 min on a plate shaker, centrifuged briefly for 1 min at 1000×g, then allowed to incubate at RT for 10 min before measuring fluorescence intensity on a SpectraMax M3 plate reader under reduced lighting. Instrument settings for each fluorophore were unchanged from the aforementioned autofluorescence studies.

[3] = Autofluorescence counter-screen; type: physicochemical; conditions: for Fluorescence counter-screen: autofluorescence at eight fluorophore settings, 32 nM-100 μM compound
Protocol: Selected test compounds were assessed for autofluorescence using an adaption of published procedures. […] Final concentration of DMSO was constant at 1.0% (v/v). Compounds and fluorophore standards were transferred as 10 mM DMSO stock solutions to 384-well black polystyrene microplates via Echo 550 dispenser. The plate arrangement was purposefully designed to minimize optical crosstalk by fluorophore standards. All measurements were performed in ALARM NMR buffer (25 mM sodium phosphate, pH 7.0) at 25 °C. Aliquots of 20 μL buffer were dispensed into microplate wells via ThermoFisher Multidrop dispenser. Compounds were shaken for 1 min on a plate shaker, centrifuged briefly for 1 min at 1000×g, then allowed to incubate at RT in buffer for 10 min before measuring fluorescence intensity on a SpectraMax M3 plate reader under reduced lighting. […] Bandwidth filters were set to default mode. Fluorescence intensity was measured for each test compound using each of the eight fluorophore standard settings. Fluorophores present on each plate were then used to construct normalized fluorescence dose-responses (“fluorophore-equivalent concentrations”, FEC). Fluorescence intensity for each test compound was converted to the appropriate FEC.

Q: With `O=c1c2cccnc2sn1Cc1ccc(C(F)(F)F)cc1` [Compound 3, PU141] as the compound, how does the “Absorption max (nm)” value (Absorbance spectra) read?
A: The value was 315 nm.

Q: What about the Absorbance counter-screen (Absorbance spectra) of the same compound?
A: The Absorbance counter-screen was “Flagged (Significant absorbance was defined as molar absorptivity constants greater than 2000 M^−1 cm^−1 at wavelengths greater than 300 nm)”.

Q: What about the “Molar absorptivity” value (Absorbance spectra) of the same compound?
A: The value was 2700 M⁻¹ cm⁻¹.

Q: And the AmpC aggregation counter-screen (AmpC β-lactamase)?
A: Its AmpC aggregation counter-screen is “Detergent-insensitive”.

Q: And the “UPLC-MS buffer stability counter-screen” value [1]?
A: The value was “Grossly stable”.

Q: And the Quenching counter-screen [2]?
A: The Quenching counter-screen was “Negative”.

Q: What about the Fluorescence counter-screen [3] of the same compound?
A: Its Fluorescence counter-screen is “Flagged (Significant autofluorescence was defined as compounds with FECs greater than 100 nM at any compound concentration)”.

Q: What about the Fluorophore interference ([3]; fluorophore settings with autofluorescence) of the same compound?
A: Its Fluorophore interference is 4MU, AlexaFluor 350.

Q: What does the source list for `Cc1cc(O)cc(C)c1C=C1C(=O)N(Cc2ccccc2)C(=O)N(Cc2ccccc2)C1=O` [Compound 4, EML425]?
A: Absorption max (nm) (Absorbance spectra): 425 nm; Absorbance counter-screen (Absorbance spectra): Flagged (Significant absorbance was defined as molar absorptivity constants greater than 2000 M^−1 cm^−1 at wavelengths greater than 300 nm); Molar absorptivity (Absorbance spectra): 2700 M⁻¹ cm⁻¹; AmpC counter-screen result (AmpC β-lactamase; detergent-sensitive modulation): likely aggregators; AmpC aggregation counter-screen (AmpC β-lactamase): Detergent-sensitive (Aggregators were defined as compounds with significant detergent-dependent changes in AmpC activity (t-test, adjusted P-value <0.05; mean differences greater than 30%)); UPLC-MS buffer stability counter-screen [1]: Grossly stable; Quenching counter-screen [2]: Flagged (Significant fluorescence quenching was defined as signal reduction greater than 25% of the corresponding fluorophore signal at any test compound concentration); Fluorescence counter-screen [3]: Negative

Q: For `COc1cc(/C=C/C(=O)CC(=O)/C=C/c2ccc(O)c(OC)c2)ccc1O` [Compound 11, Curcumin], which “Absorption max (nm)” value (Absorbance spectra) is on record?
A: Its value is 425 nm.

Q: What about the Absorbance counter-screen (Absorbance spectra) of the same compound?
A: The Absorbance counter-screen was “Flagged (Significant absorbance was defined as molar absorptivity constants greater than 2000 M^−1 cm^−1 at wavelengths greater than 300 nm)”.

Q: What about the “Molar absorptivity” value (Absorbance spectra) of the same compound?
A: Its value is 20000 M⁻¹ cm⁻¹.

Q: And the AmpC aggregation counter-screen (AmpC β-lactamase)?
A: Its AmpC aggregation counter-screen is “Detergent-sensitive (Aggregators were defined as compounds with significant detergent-dependent changes in AmpC activity (t-test, adjusted P-value <0.05; mean differences greater than 30%))”.

Q: And the “UPLC-MS buffer stability counter-screen” value [1]?
A: The value was “Gross degradation observed; loss of parent peak, appearance of new peaks”.

Q: And the Quenching counter-screen [2]?
A: The Quenching counter-screen was “Flagged (Significant fluorescence quenching was defined as signal reduction greater than 25% of the corresponding fluorophore signal at any test compound concentration)”.

Q: What about the Fluorescence counter-screen [3] of the same compound?
A: Its Fluorescence counter-screen is “Negative”.

Q: What does the source list for `C=C1C(=O)O[C@H](CCC)[C@H]1C(=O)O` [Compound 6, MB-3]?
A: Absorption max (nm) (Absorbance spectra): Nominal; Absorbance counter-screen (Absorbance spectra): Negative; AmpC aggregation counter-screen (AmpC β-lactamase): Detergent-insensitive; UPLC-MS buffer stability counter-screen [1]: Grossly stable; Quenching counter-screen [2]: Flagged (Significant fluorescence quenching was defined as signal reduction greater than 25% of the corresponding fluorophore signal at any test compound concentration); Fluorescence counter-screen [3]: Negative

Q: For Plumbagin [Compound 8], which “Absorption max (nm)” value (Absorbance spectra) is on record?
A: Its value is 420 nm.

Q: And the Absorbance counter-screen (Absorbance spectra)?
A: Its Absorbance counter-screen is “Flagged (Significant absorbance was defined as molar absorptivity constants greater than 2000 M^−1 cm^−1 at wavelengths greater than 300 nm)”.

Q: And the “Molar absorptivity” value (Absorbance spectra)?
A: Its value is 3200 M⁻¹ cm⁻¹.

Q: What about the AmpC aggregation counter-screen (AmpC β-lactamase) of the same compound?
A: The AmpC aggregation counter-screen was “Detergent-insensitive”.

Q: What about the “UPLC-MS buffer stability counter-screen” value [1] of the same compound?
A: The value was “Grossly stable”.

Q: What about the Quenching counter-screen [2] of the same compound?
A: The Quenching counter-screen was “Negative”.

Q: What about the Fluorescence counter-screen [3] of the same compound?
A: Its Fluorescence counter-screen is “Negative”.

Q: Which “Absorption max (nm)” value (Absorbance spectra) does the source give for `O=C1/C(=C/c2ccc(O)c(Br)c2)CCC/C1=C\c1ccc(O)c(Br)c1` [Compound 12, HAT inhibitor II] here?
A: Its value is 355 nm.

Q: What about the Absorbance counter-screen (Absorbance spectra) of the same compound?
A: The Absorbance counter-screen was “Flagged (Significant absorbance was defined as molar absorptivity constants greater than 2000 M^−1 cm^−1 at wavelengths greater than 300 nm)”.

Q: And the “Molar absorptivity” value (Absorbance spectra)?
A: The value was 5100 M⁻¹ cm⁻¹.

Q: What about the AmpC aggregation counter-screen (AmpC β-lactamase) of the same compound?
A: Its AmpC aggregation counter-screen is “Detergent-sensitive (Aggregators were defined as compounds with significant detergent-dependent changes in AmpC activity (t-test, adjusted P-value <0.05; mean differences greater than 30%))”.

Q: And the “UPLC-MS buffer stability counter-screen” value [1]?
A: Its value is “Gross degradation observed; loss of parent peak”.

Q: And the Quenching counter-screen [2]?
A: The Quenching counter-screen was “Flagged (Significant fluorescence quenching was defined as signal reduction greater than 25% of the corresponding fluorophore signal at any test compound concentration)”.

Q: What about the Fluorescence counter-screen [3] of the same compound?
A: Its Fluorescence counter-screen is “Negative”.

Q: Which results are given for `COc1ccc(S(=O)(=O)ON=C2C=C(C)C(=O)C(C)=C2)cc1` [Compound 5, L002]?
A: Absorption max (nm) (Absorbance spectra): 290 nm; Absorbance counter-screen (Absorbance spectra): Negative; AmpC aggregation counter-screen (AmpC β-lactamase): Detergent-insensitive; UPLC-MS buffer stability counter-screen [1]: Gross degradation observed; loss of parent peak; Quenching counter-screen [2]: Negative; Fluorescence counter-screen [3]: Negative

Q: For `CCCCCCCCCCCC1=C(O)C(=O)C=C(O)C1=O` [Compound 9, Embelin], which “Absorption max (nm)” value (Absorbance spectra) is on record?
A: Its value is 315 nm.

Q: What about the Absorbance counter-screen (Absorbance spectra) of the same compound?
A: The Absorbance counter-screen was “Flagged (Significant absorbance was defined as molar absorptivity constants greater than 2000 M^−1 cm^−1 at wavelengths greater than 300 nm)”.

Q: What about the “Molar absorptivity” value (Absorbance spectra) of the same compound?
A: Its value is 21000 M⁻¹ cm⁻¹.

Q: And the AmpC aggregation counter-screen (AmpC β-lactamase)?
A: The AmpC aggregation counter-screen was “Detergent-sensitive (Aggregators were defined as compounds with significant detergent-dependent changes in AmpC activity (t-test, adjusted P-value <0.05; mean differences greater than 30%))”.

Q: What about the “UPLC-MS buffer stability counter-screen” value [1] of the same compound?
A: The value was “Grossly stable”.

Q: And the Quenching counter-screen [2]?
A: The Quenching counter-screen was “Flagged (Significant fluorescence quenching was defined as signal reduction greater than 25% of the corresponding fluorophore signal at any test compound concentration)”.

Q: What about the Fluorescence counter-screen [3] of the same compound?
A: The Fluorescence counter-screen was “Negative”.
